These results are taken from patent US20160297768A1, “NOVEL IMIDAZOLE DERIVATIVES AND THERAPEUTIC USE THEREOF” (INDUSTRY-ACA-DEMIC COORPERATION FOUNDATION, YONSEI …, priority 2013, published 2016).

Experiment [1] concerns HeLa cells. Nature of the experiment: Apoptotic activity by MTT analysis, HeLa cells. Format: cell-based. As to conditions: 15 μM of the compound, mean±standard deviation; for cytotoxicity at 15 µM: Homo sapiens, HeLa, 12 h, read-out: Apoptosis (%) HeLa cells; for Apoptosis (%) HeLa cells: 12 hours. Here is the method:
(§1) Lung cancer cells (A549), colorectal cancer cells (HCT116), HeLa cells, liver cancer cells (HepG2), T-cell leukemia cells (Jurkat), myeloid leukemia cells (K562), breast cancer cells (MCF-7 and MDA-MB-231) and myelocytic leukemia cells ([…]) were obtained from the American Type Culture Collection (ATCC), and cultured in 10% fetal bovine serum (FBS), 50 units/mL penicillin and 50 units/mL streptomycin-added RPMI 1640 (Invitrogen). The cells were maintained in a humidified 37° C., 5% CO2 atmosphere. The anticancer activity was detected by MTT analysis. Each type of cancer cells were plated in triplicate in a 96-well microtiter plate, and cultured at 37° C. for 24 hours. The cells were treated with each of the compounds prepared above at 37° C. for 12 hours. After the culturing of the cells, 10 μL of an MTT reagent ((3-[4,5-dimethyl-2-thiazolyl]-2,5-diphenyl-2H-tetrazoliumbromide) was added to each well, and cultured for 3.5 hours. The absorbance of each sample was detected using a UV microplate reader (SpectraMax 340PC 384, Molecular Devices) at 570 nm. The detection results were measured as a mean value. The effect of each compound on apoptosis is shown in Table 1.
(§2) The A549 and HeLa cells were treated with 15 μM of the compound for 12 hours. The apoptosis was detected using MTT (mean±standard deviation).

The subject of experiment [2] is A549 cells. Put plainly: Apoptotic activity by MTT analysis, A549 cells. Format: cell-based. Particulars: 15 μM of the compound, mean±standard deviation; for cytotoxicity at 15 µM: Homo sapiens, A549, 12 h, read-out: Apoptosis (%) A549 cells; for Apoptosis (%) A549 cells: 12 hours. The procedure:
as §1, §2

`NCCOCCOCCNC(=O)c1ccc(Cn2c(-c3cccc(C(F)(F)F)c3)nc(-c3ccc(Br)cc3)c2-c2ccc(Br)cc2)cc1` [Example 2, N-(2-(2-(2-aminoethoxy)ethoxy)ethyl)-4-((4,5-bis(4-bromophenyl)-2-(3-(trifluoromethyl)phenyl)-1H-imidazole-1-yl)methyl)benzamide]: the cytotoxicity at 15 µM in experiment [1] worked out at 88 ± 1.39%; in experiment [2], 80 ± 1.16%.

Take `COc1cccc(-c2nc(-c3cccc(C(F)(F)F)c3)n(Cc3ccc(C(=O)NCCOCCOCCN)cc3)c2-c2cccc(OC)c2)c1` [Example 11, N-(2-(2-(2-aminoethoxy)ethoxy)ethyl)-4-((4,5-bis(3-methoxyphenyl)-2-(3-(trifluoromethyl)phenyl)-1H-imidazole-1-yl)methyl)benzamide]: the cytotoxicity at 15 µM in experiment [1] turned out to be 87 ± 1.55%; in experiment [2], 81 ± 1.26%.

On to `CN(C)c1ccc(-c2nc(-c3cccc(C(F)(F)F)c3)n(Cc3ccc(C(=O)NCCOCCOCCN)cc3)c2-c2ccc(N(C)C)cc2)cc1` [Example 27, N-(2-(2-(2-aminoethoxy)ethoxy)ethyl)-4-((4,5-bis(4-(dimethylamino)phenyl)-2-(3-(trifluoromethyl)phenyl)-1H-imidazole-1-yl)methyl)benzamide], for which the cytotoxicity at 15 µM worked out at 86 ± 0.38% in experiment [1] and 76 ± 0.98% in experiment [2].

Turning to `Cc1ccc(-c2nc(-c3cccc(C(F)(F)F)c3)n(Cc3ccc(C(=O)NCCOCCOCCN)cc3)c2-c2ccc(C)cc2)cc1` [Example 35, N-(2-(2-(2-aminoethoxy)ethoxy)ethyl)-4-((4,5-ditolyl-2-(3-(trifluoromethyl)phenyl)-1H-imidazole-1-yl)methyl)benzamide], the cytotoxicity at 15 µM is 87 ± 1.68% in experiment [1] and 64 ± 1.36% in experiment [2].

`COc1ccc(-c2nc(-c3ccc(C(F)(F)F)cc3)n(Cc3ccc(C(=O)NCCOCCOCCN)cc3)c2-c2ccc(OC)cc2)cc1` [Example 43, N-(2-(2-(2-aminoethoxy)ethoxy)ethyl)-4-((4,5-bis(4-methoxyphenyl)-2-(4-(trifluoromethyl)phenyl)-1H-imidazole-1-yl)methyl)benzamide]: the cytotoxicity at 15 µM in experiment [1] was determined as 38 ± 0.38%; in experiment [2], 36 ± 0.86%.

With `COc1ccc(-c2nc(-c3ccc(C(F)(F)F)cc3C(F)(F)F)n(Cc3ccc(C(=O)NCCOCCOCCN)cc3)c2-c2ccc(OC)cc2)cc1` [Example 44, N-(2-(2-(2-aminoethoxy)ethoxy)ethyl)-4-((2-(2,4-bis(trifluoromethyl)phenyl)-4,5-bis(4-methoxyphenyl)-1H-imidazole-1-yl)methyl)benzamide], the values for the cytotoxicity at 15 µM in experiment [1] and in experiment [2] were 31 ± 0.28% and 38 ± 0.68%, respectively.

As to `COc1ccc(-c2nc(-c3cc(C)cc(C)c3)n(Cc3ccc(C(=O)NCCOCCOCCN)cc3)c2-c2ccc(OC)cc2)cc1` [Example 45, N-(2-(2-(2-aminoethoxy)ethoxy)ethyl)-4-((2-(3,5-dimethylphenyl)-4,5-bis(4-methoxyphenyl)-1H-imidazole-1-yl)methyl)benzamide], the results for the cytotoxicity at 15 µM in experiment [1] and in experiment [2] were 34 ± 1.61% and 37 ± 0.5%, respectively.

Regarding `COc1ccc(-c2nc(-c3cc(OC)cc(OC)c3)n(Cc3ccc(C(=O)NCCOCCOCCN)cc3)c2-c2ccc(OC)cc2)cc1` [Example 46, N-(2-(2-(2-aminoethoxy)ethoxy)ethyl)-4-((2-(3,5-dimethoxyphenyl)-4,5-bis(4-methoxyphenyl)-1H-imidazole-1-yl)methyl)benzamide], the cytotoxicity at 15 µM in experiment [1] was 48 ± 0.28%; in experiment [2] it was 37 ± 1.34%.

Turning to `COC(=O)c1cc(C(=O)OC)cc(-c2nc(-c3ccc(OC)cc3)c(-c3ccc(OC)cc3)n2Cc2ccc(C(=O)NCCOCCOCCN)cc2)c1` [Example 47, Dimethyl 5-(1-(4-(2-(2-(2-aminoethoxy)ethoxy)ethylcarbamoyl)benzyl)-4,5-bis(4-methoxyphenyl)-1H-imidazole-2-yl)isophthalate], the cytotoxicity at 15 µM in experiment [1] is 40 ± 0.7%; in experiment [2] it was 37 ± 0.86%.

In the case of `COc1ccc(-c2nc(-c3cc(OC)c(OC)c(OC)c3)n(Cc3ccc(C(=O)NCCOCCOCCN)cc3)c2-c2ccc(OC)cc2)cc1` [Example 48, N-(2-(2-(2-aminoethoxy)ethoxy)ethyl)-4-((4,5-bis(4-methoxyphenyl)-2-(3,4,5-trimethoxyphenyl)-1H-imidazole-1-yl)methyl)benzamide], the cytotoxicity at 15 µM turned out to be 30 ± 0.76% in experiment [1] and 23 ± 0.68% in experiment [2].

In the case of `NCCOCCOCCNC(=O)c1ccc(Cn2c(-c3cc(C(F)(F)F)cc(C(F)(F)F)c3)nc(-c3ccc(Cl)cc3)c2-c2ccc(Cl)cc2)cc1` [Example 49, N-(2-(2-(2-aminoethoxy)ethoxy)ethyl)-4-((2-(3,5-bis(trifluoromethyl)phenyl)-4,5-bis(4-chlorophenyl)-1H-imidazole-1-yl)methyl)benzamide], the “Apoptosis (%) HeLa cells” value in experiment [1] came to 26 ± 0.38%. In addition, in experiment [2], the “Apoptosis (%) A549 cells” value is recorded as 0 ± 1.26%.

On to `COc1ccc(-c2nc(-c3cccc(C(F)(F)F)c3)n(Cc3ccc(C(=O)NCCOCCOCCN)cc3)c2-c2ccc(OC)cc2F)c(F)c1` [Example 68, N-(2-(2-(2-aminoethoxy)ethoxy)ethyl)-4-((4,5-bis(2-fluoro-4-methoxyphenyl)-2-(3-(trifluoromethyl)phenyl)-1H-imidazole-1-yl)methyl)benzamide], for which the cytotoxicity at 15 µM in experiment [1] came to 89 ± 0.28%; in experiment [2] it was 58 ± 1.48%.

As to `COC(=O)c1cc(C(=O)OC)cc(-c2nc(-c3ccc(OC)cc3)c(-c3ccc(OC)cc3)n2Cc2ccc(C(=O)NCCOCCOCCN)cc2)c1` [Example 100, Dimethyl 5-(1-(4-(2-(2-(2-aminoethoxy)ethoxy)ethylcarbamoyl)benzyl)-4,5-bis(4-methoxyphenyl)-1H-imidazole-2-yl)isophthalate], the “Apoptosis (%) HeLa cells” value in experiment [1] was 37 ± 1.54%. Moreover, in experiment [2], the “Apoptosis (%) A549 cells” value worked out at 31 ± 1.78%.

Take `COc1ccc(-c2nc(-c3cc(OC)c(OC)c(OC)c3)n(Cc3ccc(C(=O)NCCOCCOCCN)cc3)c2-c2ccc(OC)cc2)cc1` [Example 102, N-(2-(2-(2-aminoethoxy)ethoxy)ethyl)-4-((4,5-bis(4-methoxyphenyl)-2-(3,4,5-trimethoxyphenyl)-1H-imidazole-1-yl)methyl)benzamide]: in experiment [1], the “Apoptosis (%) HeLa cells” value was 29 ± 2.30%. Also, the “Apoptosis (%) A549 cells” value in experiment [2] is 25 ± 1.92%.

In the case of `NCCOCCOCCNC(=O)c1ccc(Cn2c(-c3cc(C(F)(F)F)cc(C(F)(F)F)c3)nc(-c3ccc4c(c3)OCO4)c2-c2ccc3c(c2)OCO3)cc1` [Example 103, N-(2-(2-(2-aminoethoxy)ethoxy)ethyl)-4-((4,5-di(benzo[d][1,3]dioxol-5-yl)-2-(3,5-bis(trifluoromethyl)phenyl)-1H-imidazole-1-yl)methyl)benzamide], the cytotoxicity at 15 µM in experiment [1] and in experiment [2] was 0% throughout.

As for `NCCOCCOCCNC(=O)c1ccc(Cn2c(-c3cc(C(F)(F)F)cc(C(F)(F)F)c3)nc(-c3ccc4ccccc4c3)c2-c2ccc3ccccc3c2)cc1` [Example 105, N-(2-(2-(2-aminoethoxy)ethoxy)ethyl)-4-((2-(3,5-bis(trifluoromethyl)phenyl)-4,5-di(naphthalene-2-yl)-1H-imidazole-1-yl)methyl)benzamide], the values for the cytotoxicity at 15 µM in experiment [1] and in experiment [2] were 49 ± 0.41% and 39 ± 0.48%, respectively.

Consider `NCCOCCOCCNC(=O)c1ccc(Cn2c(-c3cc(C(F)(F)F)cc(C(F)(F)F)c3)nc(-c3ccc4ncccc4c3)c2-c2ccc3ncccc3c2)cc1` [Example 106, N-(2-(2-(2-aminoethoxy)ethoxy)ethyl)-4-((2-(3,5-bis(trifluoromethyl)phenyl)-4,5-di(quinoline-6-yl)-1H-imidazole-1-yl)methyl)benzamide], for which the cytotoxicity at 15 µM in experiment [1] is 42 ± 0.76%; in experiment [2], 38 ± 1.28%.

`COc1ccc(-c2nc(-c3cc(O)cc(O)c3)n(Cc3ccc(C(N)=O)cc3)c2-c2ccc(OC)cc2)cc1` [Example 107, 4-((2-(3,5-dihydroxyphenyl)-4,5-bis(4-methoxyphenyl)-1H-imidazole-1-yl)methyl)benzamide]: the cytotoxicity at 15 µM was 0% in experiment [1] and 16 ± 0.3% in experiment [2].

Take `COc1ccc(-c2nc(-c3cc(C#N)cc(C#N)c3)n(Cc3ccc(C(N)=O)cc3)c2-c2ccc(OC)cc2)cc1` [Example 108, 4-((2-(3,5-dicyanophenyl)-4,5-bis(4-methoxyphenyl)-1H-imidazole-1-yl)methyl)benzamide]: the cytotoxicity at 15 µM in experiment [1] is 12 ± 1.26%; in experiment [2], 2 ± 0.8%.

With `COc1ccc(-c2nc(-c3cc(C(F)(F)F)cc(C(F)(F)F)c3)n(Cc3ccc(C(=O)NO)cc3)c2-c2ccc(OC)cc2)cc1` [Example 117, 4-((2-(3,5-bis(trifluoromethyl)phenyl)-4,5-bis(4-methoxyphenyl)-1H-imidazole-1-yl)methyl)-N-hydroxybenzamide], the cytotoxicity at 15 µM amounted to 40 ± 1.67% in experiment [1] and 43 ± 0.52% in experiment [2].

For `COc1ccc(-c2nc(-c3cc(C(F)(F)F)cc(C(F)(F)F)c3)n(Cc3ccc(C(N)=S)cc3)c2-c2ccc(OC)cc2)cc1` [Example 118, 4-((2-(3,5-bis(trifluoromethyl)phenyl)-4,5-bis(4-methoxyphenyl)-1H-imidazole-1-yl)methyl)benzothioamide], the figures for the cytotoxicity at 15 µM in experiment [1] and in experiment [2] were 50 ± 1.66% and 50 ± 0.41%, respectively.
